# Columns and labels:
# [1] = Plasma protein binding by ultrafiltration, mouse plasma; assay type: in vitro ADME, KM mice; conditions: KM; mouse plasma, 4 to 16 μg/mL; read-out: average plasma protein binding rates, range over concentrations
# Experimental: (§1) To prepare plasma samples of TPB15 at final concentrations of 4, 8, and 16 μg/mL, 1 μL of TPB15 dissolved in dimethyl sulfoxide (DMSO) at low (400 μg/mL), medium (800 μg/mL), and high (1600 μg/mL) concentrations was added to 99 μL of blank plasma obtained from humans, rats, mice, monkeys, and dogs. Each concentration was prepared in six replicates. The samples were then divided into two groups: one for determining the pre-ultrafiltration concentration (Cpre) and the other for measuring the post-ultrafiltration concentration (Ct), following the evaluation of the non-specific binding coefficient (NSB) of TPB15 to the ultrafiltration tubes. For Cpre determination, 10 μL of the sample was mixed with 990 μL of plasma, vortexed thoroughly, and analyzed for drug concentration using the previously reported liquid chromatography–tandem mass spectrometry (LC-MS/MS) method. For Ct determination, the samples were first incubated in a water bath at 37 °C for 3 h. After incubation, they were transferred to ultrafiltration tubes and centrifuged at 14,000 rpm for 20 min at 4 °C using a centrifuge (Sigma 3K-15) from Sigma Laborzentrifugen GmbH (Osterode am Harz, Germany). After centrifugation, 10 μL of the ultrafiltrate was mixed with 990 μL of plasma, vortexed, and analyzed for concentration using the same LC-MS/MS method. The formula for calculating the plasma protein binding rate (PPB) is as follows: PPB (%) = [1 − Ct/(1 − NSB)/Cpre] × 100%. (NSB: non-specific binding coefficient. […]).
# mouse plasma protein = test: as above; assay type: in vitro ADME, KM mice; conditions: 37 °C 3 h
# Experimental: as §1
# [2] = Stability in human plasma; assay type: in vitro ADME; conditions: 37 °C, 453 μg/L
# Experimental: (§2) A total of 696.5 μL of plasma from each species (healthy mice, rat, dog, monkey, and human) were spiked with 3.5 μL of TPB15 stock solution ([…] in DMSO), resulting in a final TPB15 concentration of 453 μg/L in plasma. The mixture was then aliquoted into three tubes, each with a volume of 200 μL, maintaining a final DMSO concentration of 0.5%. After incubation in a water bath at 37 °C for 0, 30, 60, 90, and 120 min, 100 µL samples were transferred into EP tubes. Subsequently, 10 µL of internal standard working solution were added, followed by vortex mixing. Then, 500 µL of ethyl acetate were added, and the mixture was vortexed again before being centrifuged at 14,800 rpm at 4 °C for 10 min. A total of 400 µL of the supernatant were transferred into a new EP tube and placed in a vacuum concentrator (Bionoon-VAC2) (Bionoon Biotech, Shanghai, China) to dry for 1 h. The dried residue was reconstituted with 100 µL of mobile phase, vortex mixed thoroughly, and centrifuged again at 14,800 rpm at 4 °C for 10 min. A volume of 5 µL of the supernatant was then taken for LC-MS/MS analysis to determine the drug concentration. Additionally, a blank control group was established, in which PBS buffer was used in place of blank plasma in the incubation system.
# Stability in rat plasma = assay type: in vitro ADME, SD rat; conditions: 37 °C, 453 μg/L
# Experimental: as §2
# Stability in mice plasma = assay type: in vitro ADME, KM mice; conditions: 37 °C, 453 μg/L
# Experimental: as §2
# [3] = Stability in monkey plasma; assay type: in vitro ADME, cynomolgus monkey; conditions: 37 °C, 453 μg/L
# Experimental: as §2
# Stability in dog plasma = assay type: in vitro ADME, beagle dog; conditions: 37 °C, 453 μg/L
# Experimental: as §2
# [4] = Metabolic stability in dog liver microsomes (DLM); assay type: in vitro ADME, beagle dog
# Experimental: A total of 450 μL liver microsomes from mice, rat, dog, monkey, and human were spiked with 0.5 μL of TPB15 solution and pre-incubated in a water bath at 37 °C for 10 min. Following this, 50 μL of NADPH were added to initiate the reaction. The concentrations of each substance in the incubation system are detailed in Table 1. After initiating the metabolic reaction, 50 μL aliquots were removed at incubation times of 0, 5, 15, 30, 45, 60, and 90 min and transferred to 150 μL of icy methanol solution containing the internal standard to terminate the reaction. The mixtures were swirled for 2 min and then centrifuged at 14,800 rpm at 4 °C for 10 min. […] Three samples were prepared in parallel at each time point. Additionally, both a positive control group and a blank control group were established. In the positive control group, substrate testosterone was incubated with liver microsomes from mice, rat, dog, monkey, and human. The concentrations of substrate testosterone were measured at 0 and 90 min, and the changes in concentration before and after incubation were compared to confirm the activity of the liver microsomes. The blank control group included one drug-containing inactivated liver microsome sample for each species. The metabolic stability parameters, including in vitro elimination half-life (T1/2) and in vitro intrinsic clearance rate (CLint), were calculated based on this graph using the following formulas: in vitro elimination half-life (T1/2) = −0.693/k and in vitro intrinsic clearance rate (CLint) = (0.693 × incubation medium (mL))/(liver microsomes (mg) × T1/2).
# mice = tested on: mice; parameters: method as in PMID 32690258; conditions: acute toxicity; cited from earlier work
# MDA-MB-231 = tested on: MDA-MB-231; parameters: method as in PMID 32690258; conditions: MDA-MB-231, in vitro; cited from earlier work
# MDA-MB-468 xenograft = tested on: MDA-MB-468 xenograft; parameters: method as in PMID 32690258; conditions: MDA-MB-468 xenograft nude mouse model, compared with positive control drug Vismodegib; cited from earlier work
# Smo = tested on: Smo; parameters: method as in PMID 32690258; conditions: preliminary studies; cited from earlier work
structure (smiles),measurement,setting,value
O=C(Nc1ccc(Cl)c(-c2nnc3c(Cl)cccn23)c1)c1ccc(Cl)nc1Cl [TPB15],fraction unbound at 3 h,[1],0.176 to 0.188
same,Plasma Protein Binding (%) KM Mice,"mouse plasma protein; 4 μg/mL TPB15, ultrafiltration",81.80 ± 0.10%
same,Plasma Protein Binding (%) KM Mice,"mouse plasma protein; 8 μg/mL TPB15, ultrafiltration",81.21 ± 0.34%
same,Plasma Protein Binding (%) KM Mice,"mouse plasma protein; 16 μg/mL TPB15, ultrafiltration",82.40 ± 0.42%
same,Remaining proportion of substrate TPB15 (%) Human,[2]; incubation 0 min,100.0 ± 1.0%
same,Remaining proportion of substrate TPB15 (%) Human,[2]; incubation 30 min,97.3 ± 1.5%
same,Remaining proportion of substrate TPB15 (%) Human,[2]; incubation 60 min,97.7 ± 0.6%
same,Remaining proportion of substrate TPB15 (%) Human,[2]; incubation 90 min,98.0 ± 1.0%
same,Remaining proportion of substrate TPB15 (%) Human,[2]; incubation 120 min,97.2 ± 1.1%
same,Remaining proportion of substrate TPB15 (%) SD rat,Stability in rat plasma; incubation 0 min,100.0 ± 0.6%
same,Remaining proportion of substrate TPB15 (%) SD rat,Stability in rat plasma; incubation 30 min,99.7 ± 1.5%
same,Remaining proportion of substrate TPB15 (%) SD rat,Stability in rat plasma; incubation 60 min,97.6 ± 0.6%
same,Remaining proportion of substrate TPB15 (%) SD rat,Stability in rat plasma; incubation 90 min,99.1 ± 0.3%
same,Remaining proportion of substrate TPB15 (%) SD rat,Stability in rat plasma; incubation 120 min,98.0 ± 0.6%
same,Remaining proportion of substrate TPB15 (%) KM mice,Stability in mice plasma; incubation 0 min,100.0 ± 0.7%
same,Remaining proportion of substrate TPB15 (%) KM mice,Stability in mice plasma; incubation 30 min,98.6 ± 0.9%
same,Remaining proportion of substrate TPB15 (%) KM mice,Stability in mice plasma; incubation 60 min,98.0 ±1.5%
same,Remaining proportion of substrate TPB15 (%) KM mice,Stability in mice plasma; incubation 90 min,97.1 ± 0.7%
same,Remaining proportion of substrate TPB15 (%) KM mice,Stability in mice plasma; incubation 120 min,98.0 ± 1.2%
same,Remaining proportion of substrate TPB15 (%) Cynomolgus monkey,[3]; incubation 0 min,100.0 ± 1.7%
same,Remaining proportion of substrate TPB15 (%) Cynomolgus monkey,[3]; incubation 30 min,98.2 ± 0.6%
same,Remaining proportion of substrate TPB15 (%) Cynomolgus monkey,[3]; incubation 60 min,96.3 ± 1.2%
same,Remaining proportion of substrate TPB15 (%) Cynomolgus monkey,[3]; incubation 90 min,99.3 ± 0.9%
same,Remaining proportion of substrate TPB15 (%) Cynomolgus monkey,[3]; incubation 120 min,98.3 ± 1.5%
same,Remaining proportion of substrate TPB15 (%) Beagle dog,Stability in dog plasma; incubation 0 min,100.0 ± 1.1%
same,Remaining proportion of substrate TPB15 (%) Beagle dog,Stability in dog plasma; incubation 30 min,99.3 ± 0.7%
same,Remaining proportion of substrate TPB15 (%) Beagle dog,Stability in dog plasma; incubation 60 min,98.9 ± 0.4%
same,Remaining proportion of substrate TPB15 (%) Beagle dog,Stability in dog plasma; incubation 90 min,97.1 ± 1.4%
same,Remaining proportion of substrate TPB15 (%) Beagle dog,Stability in dog plasma; incubation 120 min,98.0 ± 0.8%
same,remaining proportion of TPB15 in liver microsomes,"[4]; beagle dog microsomes, 90 min, 5 μM TPB15, 0.5 mg/mL, NADPH 1 mM",90.3 ± 3.54%
same,microsomal CLint at 5 μM,"[4]; beagle, dog, liver microsomes, DLM, 5 μM TPB15, 0.5 mg/mL microsomes, read-out: CLint (mL/min/mg), in vitro intrinsic clearance rate",0.0132 mL/min/mg
same,half-life at 5 μM,"[4]; beagle, dog, liver microsomes, DLM, 5 μM TPB15, 0.5 mg/mL microsomes, read-out: T1/2 (min), in vitro elimination half-life",630 min
same,lethal dose for 50% of the population (LD50),mice,3875.35 mg/kg
same,inhibition of proliferation of TNBC cell line,MDA-MB-231,significantly inhibits the proliferation
same,tumor inhibitory effect,MDA-MB-468 xenograft,"robust tumor inhibitory effect, surpassing that of the positive control drug Vismodegib"
same,binding to the Smo target,Smo,effectively binds to the Smo target

# Reference: PMC12030497, “Plasma Protein Binding, Biostability, Metabolite Profiling, and CYP450 Phenotype of TPB15 Across Different Species: A Novel Smoothened Inhibitor for TNBC Therapy” (Pharmaceutics, 2025)
